Data reported in US20140275094A1, “METHOD FOR TREATING PULMONARY ARTERIAL HYPERTENSION IN A PATIENT NOT HAVING IDIOPATHIC PULMONARY FIBROSIS” (GILEAD SCIENCES, INC., priority 2012, published 2014).
pIC50: −log10 of the molar value.

What was measured:
[1] = all clinical trials combined; cited from earlier work
[2] = tested on: patients with IPF, with or without pulmonary hypertension (WHO Group 3); assay: Randomized controlled study in idiopathic pulmonary fibrosis; format: in vivo
[3] = tested on: patients with PAH (WHO Group 1); assay: ARIES-1 12-week placebo-controlled study; format: in vivo, human; conditions: for Mean change from baseline in 6-minute walk distance / Placebo-adjusted mean change from baseline in 6-minute walk distance / Placebo-adjusted median change from baseline in 6-minute walk distance: 12 weeks; for Mean change from baseline in 6-minute walk distance: mean ± SD
Description: Two 12-week, randomized, double-blind, placebo-controlled, multicenter studies were conducted in 393 patients with PAH (WHO Group 1). The two studies were identical in design except for the doses of ambrisentan and the geographic region of the investigational sites. ARIES-1 (Ambrisentan in Pulmonary Arterial Hypertension, Randomized, Double-Blind, Placebo-Controlled, Multicenter, Efficacy Studies) compared once-daily doses of 5 mg and 10 mg ambrisentan to placebo, while ARIES-2 compared once-daily doses of 2.5 mg and 5 mg ambrisentan to placebo. In both studies, ambrisentan or placebo was added to current therapy, which could have included a combination of anticoagulants, diuretics, calcium channel blockers, or digoxin, but not epoprostenol, treprostinil, iloprost, bosentan, or sildenafil. The primary study endpoint was 6-minute walk distance. In addition, clinical worsening, WHO functional class, dyspnea, and SF-36® Health Survey were assessed.
Patients had idiopathic or heritable PAH (64%) or PAH associated with connective tissue diseases (32%), HIV infection (3%), or anorexigen use (1%). There were no patients with PAH associated with congenital heart disease.
Patients had WHO functional class I (2%), II (38%), III (55%), or IV (5%) symptoms at baseline. The mean age of patients was 50 years, 79% of patients were female, and 77% were Caucasian.
Clinical Worsening: Time to clinical worsening of PAH was defined as the first occurrence of death, lung transplantation, hospitalization for PAH, atrial septostomy, study withdrawal due to the addition of other PAH therapeutic agents or study withdrawal due to early escape. Early escape was defined as meeting two or more of the following criteria: a 20% decrease in the 6-minute walk distance; an increase in WHO functional class; worsening right ventricular failure; rapidly progressing cardiogenic, hepatic, or renal failure; or refractory systolic hypotension.

[4] = Ambrisentan in subjects who discontinued bosentan/sitaxsentan due to aminotransferase elevations (AMB-222, AMB-323); format: in vivo, human; conditions: prior ERA discontinued for aminotransferase >3×ULN
Source text: They were enrolled in studies AMB-222 (n=36) and AMB-323 (n=27). […] The remaining subjects in these studies (a total of 4 subjects) did have an aminotransferase level>3×ULN and are included in Table 1.

P-glycoprotein (Pgp) = molecular target: T1, P-glycoprotein (Pgp) (Homo sapiens, UniProt P08183); assay: Inhibition of Pgp, transfected MDCKII cells; format: cell-based; conditions: human, transfected MDCKII cells
T1 construct: expressed in transfected cells; host or cells: Madin-Darby canine kidney strain II (MDCKII)
Description: (§1) Inhibition constants (IC50) were measured for human bile salt export pump (BSEP), sodium taurocholate cotransporting polypeptide (NTCP), multidrug resistance protein 2 (MRP2), P-glycoprotein (Pgp), breast cancer resistance protein (BCRP), organic anion-transporting polypeptide 1B1 (OATP1B1), and OATP1B3 in transfected cell-lines. Known inhibitors were used as positive controls.

[5] = molecular target: T2, breast cancer resistance protein (BCRP) (Homo sapiens, UniProt Q9UNQ0); assay: Inhibition of BCRP, transfected MDCKII cells; format: cell-based; conditions: human, transfected MDCKII cells
T2 construct: expressed in transfected cells; host or cells: MDCKII
T2 sequence (Q9UNQ0 1-655): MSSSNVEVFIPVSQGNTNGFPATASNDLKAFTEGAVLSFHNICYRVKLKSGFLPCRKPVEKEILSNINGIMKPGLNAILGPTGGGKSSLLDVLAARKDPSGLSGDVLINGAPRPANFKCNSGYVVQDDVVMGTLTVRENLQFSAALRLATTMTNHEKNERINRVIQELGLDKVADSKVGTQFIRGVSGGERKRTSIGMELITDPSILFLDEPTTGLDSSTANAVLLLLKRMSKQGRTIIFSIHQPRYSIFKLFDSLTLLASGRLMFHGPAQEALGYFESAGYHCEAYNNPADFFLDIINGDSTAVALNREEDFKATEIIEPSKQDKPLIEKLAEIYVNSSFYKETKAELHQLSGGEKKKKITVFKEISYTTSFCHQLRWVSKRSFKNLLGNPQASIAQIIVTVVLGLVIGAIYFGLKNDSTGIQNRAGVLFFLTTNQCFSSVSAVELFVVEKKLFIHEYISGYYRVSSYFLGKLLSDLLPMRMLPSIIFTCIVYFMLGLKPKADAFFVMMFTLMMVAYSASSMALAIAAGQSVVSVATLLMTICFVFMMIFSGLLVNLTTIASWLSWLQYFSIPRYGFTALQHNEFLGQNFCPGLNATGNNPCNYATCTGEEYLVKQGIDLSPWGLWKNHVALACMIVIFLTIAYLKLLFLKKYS
Description: as §1

[6] = molecular target: T3, multidrug resistance protein 2 (MRP2) (Homo sapiens, UniProt Q92887); assay: Inhibition of hepatic transporter MRP2, transfected Sf9 cells; format: cell-based
T3 construct: expressed in transfected cells; host or cells: Spodoptera frugiperda (Sf9) ovarian cells
Description: as §1

[7] = ARIES-1, ambrisentan N = 134, 12-week treatment, intention-to-treat

T1 sequence (P08183 whole entry): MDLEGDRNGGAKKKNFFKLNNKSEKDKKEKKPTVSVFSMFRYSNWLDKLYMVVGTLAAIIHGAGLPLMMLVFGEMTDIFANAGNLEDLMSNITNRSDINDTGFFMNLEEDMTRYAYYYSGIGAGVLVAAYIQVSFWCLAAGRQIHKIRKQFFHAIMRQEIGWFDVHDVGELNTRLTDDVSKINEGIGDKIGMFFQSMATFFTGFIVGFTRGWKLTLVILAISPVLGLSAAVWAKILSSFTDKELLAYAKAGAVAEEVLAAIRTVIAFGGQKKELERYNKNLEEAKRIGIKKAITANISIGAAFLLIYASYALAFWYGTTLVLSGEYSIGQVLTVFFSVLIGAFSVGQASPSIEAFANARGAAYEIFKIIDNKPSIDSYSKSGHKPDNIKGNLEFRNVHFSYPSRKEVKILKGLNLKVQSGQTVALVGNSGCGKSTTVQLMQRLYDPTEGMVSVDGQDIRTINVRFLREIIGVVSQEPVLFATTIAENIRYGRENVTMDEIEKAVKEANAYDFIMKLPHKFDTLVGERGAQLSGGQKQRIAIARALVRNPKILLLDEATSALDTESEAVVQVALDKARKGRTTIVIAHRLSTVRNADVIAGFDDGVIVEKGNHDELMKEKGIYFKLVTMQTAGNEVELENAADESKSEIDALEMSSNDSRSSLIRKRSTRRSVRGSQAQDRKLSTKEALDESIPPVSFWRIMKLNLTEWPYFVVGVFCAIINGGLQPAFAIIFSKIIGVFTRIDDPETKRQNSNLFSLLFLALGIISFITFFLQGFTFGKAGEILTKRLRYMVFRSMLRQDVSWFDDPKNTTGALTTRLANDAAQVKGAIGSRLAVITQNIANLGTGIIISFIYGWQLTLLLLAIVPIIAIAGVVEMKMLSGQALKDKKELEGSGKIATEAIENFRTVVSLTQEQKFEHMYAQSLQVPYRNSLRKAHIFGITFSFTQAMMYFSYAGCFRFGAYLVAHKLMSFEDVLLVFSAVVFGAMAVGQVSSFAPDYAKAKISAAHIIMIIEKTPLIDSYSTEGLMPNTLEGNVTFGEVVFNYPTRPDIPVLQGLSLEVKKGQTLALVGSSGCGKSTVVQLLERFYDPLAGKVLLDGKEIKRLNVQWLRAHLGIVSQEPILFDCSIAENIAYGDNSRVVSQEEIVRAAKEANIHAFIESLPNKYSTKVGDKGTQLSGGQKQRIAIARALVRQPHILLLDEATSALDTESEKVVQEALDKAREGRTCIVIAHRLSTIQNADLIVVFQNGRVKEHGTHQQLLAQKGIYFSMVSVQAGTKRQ
T3 sequence (Q92887 whole entry): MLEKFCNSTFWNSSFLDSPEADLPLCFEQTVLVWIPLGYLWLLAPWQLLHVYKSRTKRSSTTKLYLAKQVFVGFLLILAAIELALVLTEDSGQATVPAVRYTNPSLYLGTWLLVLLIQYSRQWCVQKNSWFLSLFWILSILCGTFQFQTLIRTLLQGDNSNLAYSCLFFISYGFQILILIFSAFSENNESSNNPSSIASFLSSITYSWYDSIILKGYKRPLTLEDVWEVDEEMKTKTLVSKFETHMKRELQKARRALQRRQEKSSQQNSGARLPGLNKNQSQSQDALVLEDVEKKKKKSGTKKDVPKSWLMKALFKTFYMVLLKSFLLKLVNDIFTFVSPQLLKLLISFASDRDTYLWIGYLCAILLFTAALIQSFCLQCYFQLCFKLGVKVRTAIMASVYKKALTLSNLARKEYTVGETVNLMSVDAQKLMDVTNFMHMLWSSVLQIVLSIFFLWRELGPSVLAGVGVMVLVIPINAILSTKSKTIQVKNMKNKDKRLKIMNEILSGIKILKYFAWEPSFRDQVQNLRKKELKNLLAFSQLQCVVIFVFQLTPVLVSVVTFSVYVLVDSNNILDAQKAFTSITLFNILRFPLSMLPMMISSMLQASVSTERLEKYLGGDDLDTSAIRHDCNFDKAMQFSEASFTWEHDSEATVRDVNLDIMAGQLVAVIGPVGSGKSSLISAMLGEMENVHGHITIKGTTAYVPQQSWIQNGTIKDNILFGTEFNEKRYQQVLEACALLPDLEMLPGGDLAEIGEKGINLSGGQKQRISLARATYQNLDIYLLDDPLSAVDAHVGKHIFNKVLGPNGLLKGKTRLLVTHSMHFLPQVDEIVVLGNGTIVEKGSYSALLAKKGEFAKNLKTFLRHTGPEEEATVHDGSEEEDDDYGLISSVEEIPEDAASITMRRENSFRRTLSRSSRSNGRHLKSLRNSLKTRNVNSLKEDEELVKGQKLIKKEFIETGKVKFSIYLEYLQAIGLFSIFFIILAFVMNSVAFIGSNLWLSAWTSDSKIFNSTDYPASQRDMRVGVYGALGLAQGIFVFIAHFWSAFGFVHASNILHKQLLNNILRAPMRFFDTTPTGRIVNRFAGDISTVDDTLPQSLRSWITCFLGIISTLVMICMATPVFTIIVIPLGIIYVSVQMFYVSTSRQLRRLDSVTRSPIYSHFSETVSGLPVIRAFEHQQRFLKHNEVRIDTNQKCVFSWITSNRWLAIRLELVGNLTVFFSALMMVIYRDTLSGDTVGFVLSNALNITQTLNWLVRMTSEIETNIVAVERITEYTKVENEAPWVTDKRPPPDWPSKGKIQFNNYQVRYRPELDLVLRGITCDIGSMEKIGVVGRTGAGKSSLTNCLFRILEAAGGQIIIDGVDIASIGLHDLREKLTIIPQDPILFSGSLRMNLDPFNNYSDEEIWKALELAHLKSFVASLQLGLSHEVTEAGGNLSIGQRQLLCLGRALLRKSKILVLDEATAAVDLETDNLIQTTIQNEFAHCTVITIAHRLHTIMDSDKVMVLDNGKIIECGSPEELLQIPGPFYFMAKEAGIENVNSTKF

Compound	1-year risk of significant aminotransferase abnormalities [1]	patients who died ([2]; ambrisentan n=329, placebo 4%)	patients with a respiratory hospitalization ([2]; ambrisentan n=329, placebo 6%)	patients with a decrease in FVC/DLCO ([2]; ambrisentan n=329, placebo 12%)	risk of disease progression or death versus placebo ([2]; study terminated after 34 weeks)	Mean change from baseline in 6-minute walk distance ([3]; ARIES-1, 5 mg once daily (N = 67))	Placebo-adjusted mean change from baseline in 6-minute walk distance ([3]; ARIES-1, 5 mg)	Placebo-adjusted median change from baseline in 6-minute walk distance ([3]; ARIES-1, 5 mg)	Mean change from baseline in 6-minute walk distance ([3]; ARIES-1, 10 mg once daily (N = 67))	Placebo-adjusted mean change from baseline in 6-minute walk distance ([3]; ARIES-1, 10 mg)	Placebo-adjusted median change from baseline in 6-minute walk distance ([3]; ARIES-1, 10 mg)	Clinical worsening, % [3, 7]	Clinical worsening, no. [3, 7]	Time to clinical worsening, hazard ratio ([3]; ARIES-1, versus placebo)	subjects who did not experience aminotransferase elevations while receiving ambrisentan ([4]; AMB-222 (n=36))	subjects who did not experience aminotransferase elevations while receiving ambrisentan ([4]; AMB-323 (n=27))	pIC50 (P-glycoprotein (Pgp))	pIC50 [5]	pIC50 [6]
COC(c1ccccc1)(c1ccccc1)[C@H](Oc1nc(C)cc(C)n1)C(=O)O [Ambrisentan, (25)-2-[(4,6-dimethylpyrimidin-2-yl)oxy]-3-methoxy-3,3-diphenylpropanoic acid]	< 3%	8%	13%	17%	greater risk of disease progression or death	23 ± 83 meters	31 meters	27 meters	44 ± 63 meters	51 meters	39 meters	3%	4	0.28	97%	89%			
COc1ccccc1Oc1c(NS(=O)(=O)c2ccc(C(C)(C)C)cc2)nc(-c2ncccn2)nc1OCCO [Bosentan]																	< 4.00	< 4.00	< 4.00
